The target of data set [1] is T1, Recombinant human NK3 (hNK3) receptor (Homo sapiens, UniProt P29371).
T1 construct: expressed in transfected cells
T1 sequence (P29371 1-465): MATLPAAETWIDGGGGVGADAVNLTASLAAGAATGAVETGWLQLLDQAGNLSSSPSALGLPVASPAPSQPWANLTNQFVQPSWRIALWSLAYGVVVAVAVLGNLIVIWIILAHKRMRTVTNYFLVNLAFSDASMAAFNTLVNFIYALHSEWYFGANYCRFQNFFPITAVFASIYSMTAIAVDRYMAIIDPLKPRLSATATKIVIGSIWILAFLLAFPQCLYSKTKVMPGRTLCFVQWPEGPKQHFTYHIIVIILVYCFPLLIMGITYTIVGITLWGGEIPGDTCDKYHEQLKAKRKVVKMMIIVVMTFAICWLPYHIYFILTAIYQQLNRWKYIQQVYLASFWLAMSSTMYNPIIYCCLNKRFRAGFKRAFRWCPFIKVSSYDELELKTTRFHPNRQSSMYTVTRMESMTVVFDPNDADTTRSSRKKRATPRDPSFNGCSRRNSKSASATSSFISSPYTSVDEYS
The data set can be described thus: NK3 receptor binding, [3H]SR142801 displacement, membrane preparations. The gist of the method: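 hNK3 membranes (~2.5 μg/well) incubated 90 min at room temperature in 50 mM Tris-HCl pH 7.4 with 0.1% BSA, 4 mM MnCl2, 1 μM phosphoramidon. Nonspecific binding defined with 10 μM SB222200; bound [3H]SR142801 separated by filtration on PEI-soaked GF/C filters and counted by scintillation.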

For data set [2] the following is noted: phase II trial, cited from earlier work.
Another data set deals with human NK1 receptor (Homo sapiens, UniProt P25103). The data set can be described thus: NK1 receptor binding, [3H]substance P displacement, CHO cell membranes.
Chain of human NK1 receptor (P25103 whole entry): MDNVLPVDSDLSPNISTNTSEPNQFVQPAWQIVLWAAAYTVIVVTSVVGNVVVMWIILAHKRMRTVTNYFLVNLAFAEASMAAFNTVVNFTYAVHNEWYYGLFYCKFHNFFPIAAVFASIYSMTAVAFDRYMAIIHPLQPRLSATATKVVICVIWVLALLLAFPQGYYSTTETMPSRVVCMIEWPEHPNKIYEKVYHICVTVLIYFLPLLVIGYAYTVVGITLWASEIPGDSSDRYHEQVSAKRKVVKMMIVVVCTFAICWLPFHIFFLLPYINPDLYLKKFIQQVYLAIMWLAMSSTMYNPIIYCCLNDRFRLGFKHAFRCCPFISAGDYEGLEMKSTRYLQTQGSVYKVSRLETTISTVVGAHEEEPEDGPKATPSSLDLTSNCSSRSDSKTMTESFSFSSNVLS
Where [3] appears, read: second value of the cell pKi NK1/NK3, hNK3 receptor, [3H]SR142801.
Setting [4] is: first value of the cell pKi NK1/NK3, human NK1 receptor, [3H]substance P.

Like-named read-outs stand apart in the source and are kept apart here.

With `CN(C(=O)C(C)(C)c1cc(C(F)(F)F)cc(C(F)(F)F)c1)c1cnc(NCCO)cc1-c1ccccc1Cl` [Example 67, 2-(3,5-Bis-trifluoromethyl-phenyl)-N-[4-(2-chloro-phenyl)-6-(2-hydroxy-ethylamino)-pyridin-3-yl]-N-methyl-isobutyramide], the melting point fell in the range of 117 to 118 °C. Moreover, in data set [1] (setting [3]), the “pKi NK3” value was 7.94.

Consider `CC(=O)N(C)C1(c2ccccc2)CCN(CCC[C@]2(c3ccc(Cl)c(Cl)c3)CCCN(C(=O)c3ccccc3)C2)CC1` [SR 142,801, Osanetant], for which the “activity on positive symptoms of schizophrenia” value in data set [2] (altered behavior, delusion, hallucinations, extreme emotions, excited motor activity, incoherent speech) was “active”. The “activity in the treatment of negative symptoms of schizophrenia” value in data set [2] (depression, anhedonia, social isolation, memory and attention deficits) is “inactive”.

Take `Cc1ccccc1-c1cc(N2C[C@@H](O)C[C@@H]2CO)ncc1N(C)C(=O)C(C)(C)c1cc(F)cc(C(F)(F)F)c1` (stereo in doubt) [Example 14, (2R,4S)-2-(3-Fluoro-5-trifluoromethyl-phenyl)-N-[6-(4-hydroxy-2-hydroxymethyl-pyrrolidin-1-yl)-4-o-tolyl-pyridin-3-yl]-N-methyl-isobutyramide]: the Ki in data set [1] (setting [3]) was 3.02 nM; at human NK1 receptor (setting [4]), 1.29 nM.

For `C[C@H](O)CNc1cc(-c2ccccc2Cl)c(N(C)C(=O)C(C)(C)c2cc(C(F)(F)F)cc(C(F)(F)F)c2)cn1` [Example 72, (S)-2-(3,5-Bis-trifluoromethyl-phenyl)-N-[4-(2-chloro-phenyl)-6-(2-hydroxy-propylamino)-pyridin-3-yl]-N-methyl-isobutyramide], the values for the Ki (in data set [1] (setting [3]); at human NK1 receptor (setting [4])) were 26.3 nM and 0.724 nM, respectively.

Take `CN(C(=O)C(C)(C)c1cc(C(F)(F)F)cc(C(F)(F)F)c1)c1cnc(N[C@H]2CC[C@H](O)CC2)cc1-c1ccccc1Br` [Example 132, trans-2-(3,5-Bis-trifluoromethyl-phenyl)-N-[4-(2-bromo-phenyl)-6-(4-hydroxy-cyclohexylamino)-pyridin-3-yl]-N-methyl-isobutyramide]: the Ki was 7.24 nM in data set [1] (setting [3]) and 1.32 nM on human NK1 receptor (setting [4]).

As to `Cc1cc(F)ccc1-c1cc(N(CCO)CCCO)ncc1N(C)C(=O)C(C)(C)c1cc(C(F)(F)F)cc(C(F)(F)F)c1` [Example 85, 2-(3,5-Bis-trifluoromethyl-phenyl)-N-{4-(4-fluoro-2-methyl-phenyl)-6-[(2-hydroxy-ethyl)-(3-hydroxy-propyl)-amino]-pyridin-3-yl}-N-methyl-isobutyramide], the Ki in data set [1] (setting [3]) is 2.29 nM; at human NK1 receptor (setting [4]), 2.34 nM.

Regarding `CN(C(=O)C(C)(C)c1cc(Cl)cc(Cl)c1)c1cnc(N2CCC[C@H]2CO)cc1-c1ccccc1Cl` [Example 2, (S)-N-[4-(2-Chloro-phenyl)-6-(2-hydroxymethyl-pyrrolidin-1-yl)-pyridin-3-yl]-2-(3,5-dichloro-phenyl)-N-methyl-isobutyramide], the Ki in data set [1] (setting [3]) is 0.891 nM; on human NK1 receptor (setting [4]), 3.39 nM.

Consider `CN(C(=O)C(C)(C)c1cc(Cl)cc(Cl)c1)c1cnc(N2C[C@H](O)C[C@H]2CO)cc1-c1ccccc1Cl` [Example 3, (2S,4R)-N-[4-(2-Chloro-phenyl)-6-(4-hydroxy-2-hydroxymethyl-pyrrolidin-1-yl)-pyridin-3-yl]-2-(3,5-dichloro-phenyl)-N-methyl-isobutyramide], for which the Ki in data set [1] (setting [3]) was 0.871 nM; at human NK1 receptor (setting [4]), 1.41 nM.

In the case of `CC(=O)N[C@@H]1CCN(c2cc(-c3ccc(F)cc3C)c(N(C)C(=O)C(C)(C)c3cc(C(F)(F)F)cc(C(F)(F)F)c3)cn2)C1` [Example 100, (R)-N-[6-(3-Acetylamino-pyrrolidin-1-yl)-4-(4-fluoro-2-methyl-phenyl)-pyridin-3-yl]-2-(3,5-bis-trifluoromethyl-phenyl)-N-methyl-isobutyramide], the Ki is 20 nM in data set [1] (setting [3]) and 1.82 nM on human NK1 receptor (setting [4]).

For the compound `Cc1ccc(F)cc1-c1cc(N2CC[C@H](O)[C@H]2CO)ncc1N(C)C(=O)C(C)(C)c1cc(C(F)(F)F)cc(C(F)(F)F)c1` [Example 276, (2R,3S)-2-(3,5-Bis-trifluoromethyl-phenyl)-N-[4-(5-fluoro-2-methyl-phenyl)-6-(3-hydroxy-2-hydroxymethyl-pyrrolidin-1-yl)-pyridin-3-yl]-N-methyl-isobutyramide], the Ki in data set [1] (second value of the cell NK1/NK3, read-out: pKi NK3 (converted)) was 1.38 nM; at human NK1 receptor (first value of the cell NK1/NK3, read-out: pKi NK1 (converted)), 1.45 nM.

As for `Cc1cc(F)ccc1-c1cc(N2[C@@H](CO)CC[C@@H]2CO)ncc1N(C)C(=O)C(C)(C)c1cc(C(F)(F)F)cc(C(F)(F)F)c1` [Example 199, (2R,5R)-N-[6-(2,5-Bis-hydroxymethyl-pyrrolidin-1-yl)-4-(4-fluoro-2-methyl-phenyl)-pyridin-3-yl]-2-(3,5-bis-trifluoromethyl-phenyl)-N-methyl-isobutyramide], the Ki in data set [1] (setting [3]) is 15.5 nM; at human NK1 receptor (setting [4]), 2.51 nM.

These data come from US8404708B2, “Dual NK1/NK3 receptor antagonists” (Hoffmann-La Roche Inc., priority 2004, dated 2013).
